# In patent publication US10919891B2, “Heterocyclic compound” (TAKEDA PHARMACEUTICAL COMPANY LIMITED, priority 2017, dated 2021):
# Assays:
# CYP3A4 = target: T1, CYP3A4 (Homo sapiens, UniProt P08684); test: CYP3A4 TDI (human liver microsomes, testosterone 6β-hydroxylation); format: in vitro ADME; details: test compound 30 μM, 60 min vs 0 min preincubation with NADPH, 37° C.
# T1 construct: Human liver microsomes purchased from XenoTech, LLC (Lenexa, Kans.) was used; tissue XenoTech, LLC; host or cells: human liver microsomes
# T1 sequence (P08684 whole entry): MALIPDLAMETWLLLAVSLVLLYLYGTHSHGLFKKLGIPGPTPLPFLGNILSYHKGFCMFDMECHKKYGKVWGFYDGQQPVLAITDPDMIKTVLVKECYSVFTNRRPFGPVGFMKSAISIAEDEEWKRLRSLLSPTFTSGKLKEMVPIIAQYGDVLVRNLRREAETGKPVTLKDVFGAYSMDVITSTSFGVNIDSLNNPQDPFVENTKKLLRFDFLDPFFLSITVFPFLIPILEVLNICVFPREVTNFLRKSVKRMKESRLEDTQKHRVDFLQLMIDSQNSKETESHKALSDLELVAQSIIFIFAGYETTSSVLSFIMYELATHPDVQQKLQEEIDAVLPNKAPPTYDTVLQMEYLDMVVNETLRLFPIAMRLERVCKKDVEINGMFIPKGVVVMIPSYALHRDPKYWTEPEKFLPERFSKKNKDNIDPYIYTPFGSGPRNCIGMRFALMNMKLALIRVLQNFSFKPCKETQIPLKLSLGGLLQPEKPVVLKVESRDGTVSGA
# Experimental: Human liver microsomes purchased from XenoTech, LLC (Lenexa, Kans.) was used. Test compounds were dissolved in acetonitrile, acetonitrile/methanol (1:1, v/v) or DMSO/acetonitrile (1:4, v/v). To a human liver microsomes solution adjusted with phosphate buffer (pH 7.4), the test compound solution was added to obtain a human liver microsomes reaction solution having the test compound concentration of 30 μM. To the human liver microsome reaction solution, NADPH production system was added, and the mixture was preincubated at 37° C. for 0 minutes or 60 minutes. After the preincubation, probe substrate testosterone was added, and testosterone metabolite 6β-hydroxytestosterone was analyzed by LC/MS/MS to evaluate CYP3A4 enzymatic activity.
# The enzyme activity (% of control) at each preincubation point was calculated from the following equation: % of control=[(activity of test compound addition group)/(activity of test compound non-addition group)]×100.
# The remaining activity (% remaining) after 60 minutes of preincubation was calculated from the following equation: Remaining activity (%)=[activity after 60 minutes (% of control60 min)]/[activity after 0 minutes (% of control0 min)]×100.
# CYP3A = test: CYP Induction (CYP3A activity in cryopreserved hepatocytes, P450-Glo CYP3A4 assay); format: in vitro ADME; details: % of positive control (inducibility by 10 μmol/L rifampicin = 100%); hepatocytes treated 3 days
# Experimental: Cryopreserved hepatocytes were thawed in a culture medium (In VitroGRO™ CP Medium, Celsis In Vitro Technologies, U.S.A.), and the resultant was added to BioCoat™ Matrigel® Matrix Thin-Layer 96 well (Becton, Dickinson and Company, U.S.A.) at a concentration of 40,000 cells/well. After culturing for 24 hours, the culture medium was removed, and replaced with an incubation medium (In VitroGRO™, HI Medium with Torpedo Antibiotic Mix, Celsis In Vitro Technologies, U.S.A.). Cells were cultured for an additional 3 days. The medium was removed on day 4, and the remained cells were treated in the induction medium containing a test compound for 3 days in the presence or absence of 10 μmol/L rifampicin. The induction medium was replaced every day. The test compound addition wells in the presence of 10 μmol/L rifampicin were used to evaluate the inhibitory effect of the test compound on the inducibility of the CYP3A activity by rifampicin. The CYP3A activity was evaluated by measuring luciferin generating amount after the addition of 2 μmol/L luciferin-IPA using IPA P450-Glo™ CYP3A4 assay systems (Promega Corporation, U.S.A.). All cultures were carried out under a humidified environment at 37° C., 5% CO2. The inducibility by rifampicin was defines as 100%, and the inducibility of the test compound (% of positive control) was calculated from the following equation: [(luciferin fluorescence intensity in the absence of rifampicin and the presence of test compound)−(luciferin fluorescence intensity in the absence of rifampicin and test compound)/(luciferin fluorescence intensity in the presence of rifampicin and the absence of test compound)−(Luciferin fluorescence intensity in the absence of rifampicin and test compound)]×100.
compound,measurement,setting,value
"CC1(C)C[C@H](c2ccccc2)Nc2c(C(=O)N3C[C@@H]4C[C@]4(c4ccc(Cl)c(Cl)c4)C3)cnn21 [Example 1, ((1S,5R)-1-(3,4-Dichlorophenyl)-3-azabicyclo[3.1.0]hex-3-yl)((5R)-7,7-dimethyl-5-phenyl-4,5,6,7-tetrahydropyrazolo[1,5-a]pyrimidin-3-yl)methanone]",Remaining Activity (%),CYP3A4,86.0%
same,Inducibility (%),CYP3A,4.9%
